One assay has as its target rD2 (Rattus norvegicus, UniProt P61169). The assay can be described thus: NIMH PDSP selectivity binding, rD2. An excerpt: (§1) . […] NET and SERT represent the norepinephrine and serotonin transporters.
A further assay concerns the target hD1 (Homo sapiens, UniProt P21728). The assay can be described thus: NIMH PDSP selectivity binding, hD1.
From the text: as §1

In another assay the target is T1, rD4 (Rattus norvegicus, UniProt P30729).
T1 sequence (P30729 1-387): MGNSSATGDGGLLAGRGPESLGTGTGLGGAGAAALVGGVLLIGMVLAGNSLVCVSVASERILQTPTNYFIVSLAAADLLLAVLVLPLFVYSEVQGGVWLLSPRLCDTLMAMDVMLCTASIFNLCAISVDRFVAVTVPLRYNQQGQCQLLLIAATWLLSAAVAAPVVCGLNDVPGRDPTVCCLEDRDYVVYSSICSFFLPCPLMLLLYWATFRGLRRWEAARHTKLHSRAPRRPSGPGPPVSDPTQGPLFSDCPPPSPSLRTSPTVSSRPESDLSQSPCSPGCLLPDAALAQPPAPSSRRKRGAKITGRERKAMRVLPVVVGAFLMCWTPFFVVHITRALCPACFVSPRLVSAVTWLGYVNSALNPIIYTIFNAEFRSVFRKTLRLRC
The assay can be described thus: NIMH PDSP selectivity binding, rD4.
From the text: as §1

Another assay addresses T2, human 5-HT6 (Homo sapiens, UniProt P50406).
T2 construct: expressed in transfected cells; host or cells: HEK 293
The assay can be described thus: biochemical. It is filed as binding.

For assay [1], the target named is T3, Human 5-HT6 receptors stably expressed in 293 HEK cells (Homo sapiens, UniProt P50406).
T3 construct: expressed in transfected cells; host or cells: HEK 293
T3 sequence (P50406 whole entry): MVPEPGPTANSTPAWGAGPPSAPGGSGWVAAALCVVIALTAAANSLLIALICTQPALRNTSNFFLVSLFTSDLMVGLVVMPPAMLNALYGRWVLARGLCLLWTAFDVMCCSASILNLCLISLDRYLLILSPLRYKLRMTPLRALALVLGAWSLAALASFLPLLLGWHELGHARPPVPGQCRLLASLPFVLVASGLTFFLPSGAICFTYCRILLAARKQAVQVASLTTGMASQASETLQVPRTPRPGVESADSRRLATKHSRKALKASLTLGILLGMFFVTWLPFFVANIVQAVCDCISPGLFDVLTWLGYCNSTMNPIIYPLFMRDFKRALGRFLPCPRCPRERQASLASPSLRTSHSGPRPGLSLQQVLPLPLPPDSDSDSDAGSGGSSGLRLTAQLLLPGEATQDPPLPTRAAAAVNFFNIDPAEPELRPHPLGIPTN
The assay is described as follows: cAMP activation assay (adenylate cyclase activity). To be noted: 5-HT6 receptor. It is filed as cell-based. As for the experimental part:
Human 5-HT6 receptors stably expressed in 293 HEK cells were grown in 24-well plates to near confluence and 18 h prior to the assay the medium was replaced with DMEM containing dialyzed 10% Fetal Calf Serum. For the assay, the medium was aspirated and replaced with fresh DMEM without serum and incubated with various concentrations of compounds of the invention in a total volume of 0.5 ml for 15 min. The assay was terminated by aspiration and the addition of 10% trichloroacetic acid (TCA). The TCA extract was used for cAMP determinations. (Data represent the mean of N=4 separate determinations). Results of cAMP activation by various compounds of the invention are shown in the attached Drawing of FIG. 1.

In a further assay the target is rD3 (Rattus norvegicus, UniProt P19020). The assay is described as follows: NIMH PDSP selectivity binding, rD3.
Sequence of rD3 (P19020 whole entry): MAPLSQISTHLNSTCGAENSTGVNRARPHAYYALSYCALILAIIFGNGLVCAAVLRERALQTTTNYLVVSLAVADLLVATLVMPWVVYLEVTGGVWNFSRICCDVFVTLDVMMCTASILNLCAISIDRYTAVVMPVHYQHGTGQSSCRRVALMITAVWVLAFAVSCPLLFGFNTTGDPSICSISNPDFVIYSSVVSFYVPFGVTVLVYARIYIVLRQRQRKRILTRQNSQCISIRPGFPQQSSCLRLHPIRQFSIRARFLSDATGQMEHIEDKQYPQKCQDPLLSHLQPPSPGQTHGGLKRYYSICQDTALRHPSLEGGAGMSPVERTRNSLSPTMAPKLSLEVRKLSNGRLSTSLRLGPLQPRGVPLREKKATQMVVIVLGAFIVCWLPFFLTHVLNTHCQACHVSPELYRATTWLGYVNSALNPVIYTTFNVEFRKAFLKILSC
From the text: as §1

The target in the next assay is hD5 (Homo sapiens, UniProt P21918). The assay is described as follows: NIMH PDSP selectivity binding, hD5.
Sequence of hD5 (P21918 whole entry): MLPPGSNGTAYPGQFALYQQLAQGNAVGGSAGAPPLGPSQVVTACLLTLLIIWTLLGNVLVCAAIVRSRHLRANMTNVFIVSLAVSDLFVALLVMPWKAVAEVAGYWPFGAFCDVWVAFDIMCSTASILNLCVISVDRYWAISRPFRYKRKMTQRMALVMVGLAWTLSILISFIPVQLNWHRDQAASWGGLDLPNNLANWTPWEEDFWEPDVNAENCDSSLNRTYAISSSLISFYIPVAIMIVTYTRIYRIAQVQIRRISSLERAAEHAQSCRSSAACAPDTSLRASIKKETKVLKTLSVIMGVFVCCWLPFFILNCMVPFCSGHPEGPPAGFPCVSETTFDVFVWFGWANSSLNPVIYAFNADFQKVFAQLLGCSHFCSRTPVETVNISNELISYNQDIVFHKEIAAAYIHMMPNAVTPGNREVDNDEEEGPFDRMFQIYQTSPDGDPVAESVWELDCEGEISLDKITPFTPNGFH
From the text: as §1

The target in another assay is T4, 5-HT3 receptors (Homo sapiens, UniProt P46098).
T4 sequence (P46098 24-478): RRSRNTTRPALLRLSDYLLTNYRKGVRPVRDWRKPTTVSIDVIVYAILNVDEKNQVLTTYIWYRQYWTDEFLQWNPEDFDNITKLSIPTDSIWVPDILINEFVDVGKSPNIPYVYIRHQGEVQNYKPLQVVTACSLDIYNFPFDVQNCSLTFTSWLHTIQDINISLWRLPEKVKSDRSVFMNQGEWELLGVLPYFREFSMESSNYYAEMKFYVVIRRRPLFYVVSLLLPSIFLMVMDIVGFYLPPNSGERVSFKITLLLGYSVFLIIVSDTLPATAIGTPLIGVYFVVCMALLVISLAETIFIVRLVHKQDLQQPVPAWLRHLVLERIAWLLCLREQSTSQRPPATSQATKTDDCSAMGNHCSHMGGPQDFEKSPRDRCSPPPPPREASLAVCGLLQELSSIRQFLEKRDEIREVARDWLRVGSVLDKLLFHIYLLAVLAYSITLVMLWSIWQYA
The assay is described as follows: Affinity at 5-HT3 receptors. It is filed as binding.

Molecules are shown by their SMILES. Where a name gives a salt, the structure may show the parent alone. Read-outs that look alike come from different tables or passages of the source.

Sequence of hD1 (P21728 whole entry): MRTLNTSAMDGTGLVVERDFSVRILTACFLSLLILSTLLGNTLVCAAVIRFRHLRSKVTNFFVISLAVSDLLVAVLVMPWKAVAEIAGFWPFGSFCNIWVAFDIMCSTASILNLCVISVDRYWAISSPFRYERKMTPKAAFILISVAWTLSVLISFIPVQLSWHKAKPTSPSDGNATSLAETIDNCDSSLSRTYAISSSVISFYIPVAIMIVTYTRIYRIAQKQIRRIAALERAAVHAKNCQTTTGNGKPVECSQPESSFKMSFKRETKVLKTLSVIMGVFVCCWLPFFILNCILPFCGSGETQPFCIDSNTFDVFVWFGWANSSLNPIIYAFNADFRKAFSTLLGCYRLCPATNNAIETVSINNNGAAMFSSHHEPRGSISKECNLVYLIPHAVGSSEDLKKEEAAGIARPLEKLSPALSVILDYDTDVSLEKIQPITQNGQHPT
Sequence of rD2 (P61169 whole entry): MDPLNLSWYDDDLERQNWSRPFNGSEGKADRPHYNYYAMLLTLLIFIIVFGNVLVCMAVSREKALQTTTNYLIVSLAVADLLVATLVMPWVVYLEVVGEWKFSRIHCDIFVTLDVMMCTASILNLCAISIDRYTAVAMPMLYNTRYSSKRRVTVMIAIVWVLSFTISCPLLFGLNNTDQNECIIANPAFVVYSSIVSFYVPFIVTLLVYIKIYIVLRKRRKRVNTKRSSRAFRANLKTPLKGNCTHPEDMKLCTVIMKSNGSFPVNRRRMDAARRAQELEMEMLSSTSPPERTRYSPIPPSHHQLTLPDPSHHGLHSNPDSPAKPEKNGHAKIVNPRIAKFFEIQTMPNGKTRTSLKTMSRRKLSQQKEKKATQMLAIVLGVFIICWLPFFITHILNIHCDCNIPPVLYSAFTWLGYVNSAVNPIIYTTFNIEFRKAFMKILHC
T2 sequence (P50406 whole entry): as the sequence (P50406 whole entry) above

For the compound `COc1ccc2[nH]c(-c3ccccc3)c(CCN(C)C)c2c1` [Compound D, 5-methoxy-2-phenyl-N,N-dimethyltryptamine oxalate], the Ki on rD2 (rD2, read-out: Ki) is at least 10 µM; on hD1 (hD1, read-out: Ki), at least 10 µM; on rD4 (rD4, read-out: Ki) it was at least 10 µM.
As to `Cc1[nH]c2ccccc2c1CCN(C)C` [2-methyl-N,N-dimethyltryptamine], the Ki on human 5-HT6 (read-out: affinity for the 5-HT6 receptor, Ki) is 0.308 µM.
As to `COc1ccc2[nH]c(-c3ccccc3)c(CCN)c2c1` [5-methoxy-2-phenylotryptamine], the “effect on adenylate cyclase activity (in words)” value in assay [1] was “antagonist to 5-HT stimulated adenylate cyclase activity”. At human 5-HT6, the “affinity for the 5-HT6 receptor (in words)” value was “high affinity”.
Take `COc1ccc2[nH]c(C)c(CCN(C)C)c2c1` [Compound A, 2-methyl-5-methoxy-N,N-dimethyltryptamine]: the Ki at rD2, on hD1, on rD4, at rD3 and at hD5 was over 10 µM throughout.
`COc1ccc2c(c1)c(CCN(C)C)c1n2CCCC1=O` [I, 6,7,8,9-tetrahydro-2-methoxy-10-(N,N-dimethylaminoethyl)pyridol[1,2-a]indole-9-one Oxalate]: the Ki at human 5-HT6 (human 5-HT6 in HEK 293, [3H]LSD, third table, read-out: Ki) was found to be 0.084 µM.
With `Cc1[nH]c2ccc(O)cc2c1CCN` [2-methyl-5-HT, reference compound], the “greater affinity at 5-HT6 than at 5-HT3 receptors” value at 5-HT3 receptors (5-HT6 over 5-HT3) is on record as 20 fold. The entries for the “affinity for the 5-HT6 receptor (in words)” value at human 5-HT6 and on human 5-HT6 (listed as 2-methyly-5-HT) were “high affinity” and “affinity equivalent to that of the parent compound”, respectively.
On to `COc1ccc2[nH]c(C)c(CCN)c2c1` [5-methoxy-2-methyltryptamine, reference compound], for which the “affinity for 5-HT3 receptors (in words)” value at 5-HT3 receptors is “lacks affinity”. Moreover, the “affinity for the 5-HT6 receptor (in words)” value at human 5-HT6 is “affinity comparable to 2-methyl-5-HT”.
For `CCc1[nH]c2ccc(OC)cc2c1CCN(C)C` [Compound B, 2-ethyl-5-methoxy-N,N-dimethyltryptamine maleate], the Ki at rD2, at hD1, at rD4, on rD3 and at hD5 was over 10 µM each time.

What is called Ki is a measure of affinity in units of concentration, obtained from inhibition or displacement.

Source of the values: patent publication US6403808B1, “Selective 5-HT6 receptor ligands” (priority 2001, dated 2002).
